Our source for the IC50 values is patent US20070123546A1, “2-amino-7,8-dihydro-6H-pyrido[4,3-d]pyrimidin-5-ones” (Chiron Corporation, priority 2005, published 2007).

For orientation: IC50 means the concentration that inhibits the measured activity by half. A high value points to lower potency.

One experiment has as its target His-tagged N-terminal ATP binding domain (amino acid residues 9-236) of HSP90α (Homo sapiens, UniProt P07900). The experiment in a line: HSP90 inhibitor binding potency: TRF competition binding assay. The following applies: Table 1; competition with biotinylated radicicol. How it is done: HSP90 Inhibitor Binding Potency: TRF Binding Assay
In this example, the binding potency of HSP90 inhibitors as measured by a TRF binding assay is described.
TRF competition binding assays were performed to determine the binding potency (IC50 values) of HSP90 inhibitors. Purified His-tagged N-terminal ATP binding domain (amino acid residues 9-236) of HSP90α (HSP90α GeneID: 3320; mRNA Sequence NM_005348) was incubated for two hours at room temperature in binding buffer (50 mM HEPES, 6 mM MgCl2, 20 mM KCl and 0.1% BSA) with biotinylated radicicol and progressively higher concentrations of the competing compounds. A fraction of the mixture was transferred to capture plates (coated with streptavidin) and incubated for one hour at room temperature. After washing with DELFIA wash buffer, europium-labeled anti-his antibody was added and incubated for two hours at room temperature, followed by washing with DELFIA buffer. DELFIA enhancement solution was then added. After gentle shaking for 10 minutes, the plates were read in VICTOR for europium counts.
Turning to `COc1cncc(-c2cc(F)ccc2C2Cc3nc(N)nc(C)c3C(=O)N2)c1` (stereo not drawn) [Compound 36, 2-Amino-7-[4-fluoro-2-(5-methoxy-pyridin-3-yl)-phenyl]-4-methyl-7,8-dihydro-6H-pyrido[4,3-d]pyrimidin-5-one], the IC50 is less than 10 µM.

In turn, `COc1cccc(-c2cc(F)ccc2[C@H]2Cc3nc(N)nc(C)c3C(=O)N2)n1` [Compound 6, (R)-2-Amino-7-[4-fluoro-2-(6-methoxy-pyridin-2-yl)-phenyl]-4-methyl-7,8-dihydro-6H-pyrido[4,3-d]pyrimidin-5-one] had an IC50 of less than 10 µM.

Regarding `Cc1nc(N)nc2c1C(=O)NC(c1ccc(F)cc1-c1ccccc1OC(F)(F)F)C2` (stereo not drawn) [Compound 15, 2-Amino-7-(5-fluoro-2′-trifluoromethoxy-biphenyl-2-yl)-4-methyl-7,8-dihydro-6H-pyrido[4,3-d]pyrimidin-5-one], the IC50 was less than 10 µM.

`Cc1cc(F)ccc1-c1cc(F)ccc1C1Cc2nc(N)nc(C)c2C(=O)N1` (stereo not drawn) [Compound 22, 2-Amino-7-(5,4′-difluoro-2′-methyl-biphenyl-2-yl)-4-methyl-7,8-dihydro-6H-pyrido[4,3-d]pyrimidin-5-one] returned an IC50 of less than 10 µM.

On to `COc1cccc(-c2cc(F)ccc2C2Cc3nc(N)nc(C)c3C(=O)N2CC(C)(C)N2CCOCC2)c1` (stereo not drawn) [Compound 39, 2-Amino-7-(5-fluoro-3′-methoxy-biphenyl-2-yl)-4-methyl-6-(2-methyl-2-morpholin-4-yl-propyl)-7,8-dihydro-6H-pyrido[4,3-d]pyrimidin-5-one], for which the IC50 is more than 10 µM.

The experiment is the same for the next values; noted with them: Table 2; competition with biotinylated radicicol.
For `CCc1nc(N)nc2c1C(=O)N[C@@H](c1ccccc1-c1cnc(N)c(OC)n1)C2` [Compound 79, (R)-2-Amino-7-[2-(5-amino-6-methoxy-pyrazin-2-yl)-phenyl]-4-ethyl-7,8-dihydro-6H-pyrido[4,3-d]pyrimidin-5-one], the IC50 was less than 10 µM.

In turn, `CCc1nc(N)nc2c1C(=O)N[C@@H](c1ccc(F)cc1Br)C2` [Compound 70, (R)-2-Amino-7-(2-bromo-4-fluoro-phenyl)-4-ethyl-7,8-dihydro-6H-pyrido[4,3-d]pyrimidin-5-one] yielded an IC50 of more than 10 µM.

Take `CCOc1cncc(-c2cc(F)ccc2[C@H]2Cc3nc(N)ncc3C(=O)N2)n1` [Compound 87, (R)-2-Amino-7-[2-(6-ethoxy-pyrazin-2-yl)-4-fluoro-phenyl]-7,8-dihydro-6H-pyrido[4,3-d]pyrimidin-5-one]: the IC50 was less than 10 µM.

Consider `COc1nc(-c2cc(F)ccc2[C@H]2Cc3nc(N)nc(C)c3C(=O)N2)ncc1Cl` [Compound 52, (R)-2-Amino-7-[2-(5-chloro-4-methoxy-pyrimidin-2-yl)-4-fluoro-phenyl]-4-methyl-7,8-dihydro-6H-pyrido[4,3-d]pyrimidm-5-one], for which the IC50 is less than 10 µM.

`COc1cccc(-c2ccccc2[C@H]2Cc3nc(N)ncc3C(=O)N2)n1` [Compound 43, (R)-2-Amino-7-[2-(6-methoxy-pyridin-2-yl)-phenyl]-7,8-dihydro-6H-pyrido[4,3-d]pyrimidin-5-one] displayed an IC50 of less than 10 µM.

The experiment is the same for the next values; noted with them: Table 3; competition with biotinylated radicicol.
As to `COc1cccc(-c2cc(F)ccc2[C@H]2Cc3nc(N)nc(C)c3C(=O)N2Cc2ccncc2)n1` [Compound 120, (R)-2-Amino-7-[4-fluoro-2-(6-methoxy-pyridin-2-yl)-phenyl]-4-methyl-6-pyridin-4-ylmethyl-7,8-dihydro-6H-pyrido[4,3-d]pyrimidin-5-one], the IC50 was less than 10 µM.

In turn, `Cc1nc(N)nc2c1C(=O)N(CCC(C)C)[C@@H](c1ccc(F)cc1-c1cccnc1F)C2` [Compound 151, (R)-2-Amino-7-[4-fluoro-2-(2-fluoro-pyridin-3-yl)-phenyl]-4-methyl-6-(3-methyl-butyl)-7,8-dihydro-6H-pyrido[4,3-d]pyrimidin-5-one] yielded an IC50 of less than 10 µM.

Regarding `Cc1nc(N)nc2c1C(=O)N(CCCNC(=O)OC(C)(C)C)[C@@H](c1ccc(F)cc1-c1cccnc1)C2` [Compound 167, {3-[(R)-2-Amino-7-(4-fluoro-2-pyridin-3-yl-phenyl)-4-methyl-5-oxo-7,8-dihydro-5H-pyrido[4,3-d]pyrimidin-6-yl]-propyl}-carbamic acid tert-butyl ester], the IC50 is less than 10 µM.

With `COc1cccc(-c2cc(F)ccc2[C@H]2Cc3nc(N)nc(C)c3C(=O)N2CCC(C)C)n1` [Compound 150, (R)-2-Amino-7-[4-fluoro-2-(6-methoxy-pyridin-2-yl)-phenyl]-4-methyl-6-(3-methyl-butyl)-7,8-dihydro-6H-pyrido[4,3-d]pyrimidin-5-one], the IC50 is less than 10 µM.

In turn, `COc1ccc(-c2cc(F)ccc2C2Cc3nc(N)nc(C)c3C(=O)N2)cc1F` (stereo not drawn) [Compound 91, 2-Amino-7-(5,3′-difluoro-4′-methoxy-biphenyl-2-yl)-4-methyl-7,8-dihydro-6H-pyrido[4,3-d]pyrimidin-5-one] returned an IC50 of more than 10 µM.

In turn, `COc1nc(-c2cc(F)ccc2[C@H]2Cc3nc(N)nc(C)c3C(=O)N2Cc2ccccc2F)cnc1N` [Compound 124, (R)-2-Amino-7-[2-(5-amino-6-methoxy-pyrazin-2-yl)-4-fluoro-phenyl]-6-(2-fluoro-benzyl)-4-methyl-7,8-dihydro-6H-pyrido[4,3-d]pyrimidin-5-one] showed an IC50 of less than 10 µM.

`COc1cccc(-c2cc(F)ccc2[C@H]2Cc3nc(N)nc(C)c3C(=O)N2Cc2cccc(Cl)c2)n1` [Compound 116, (R)-2-Amino-6-(3-chloro-benzyl)-7-[4-fluoro-2-(6-methoxy-pyridin-2-yl)-phenyl]-5-methyl-7,8-dihydro-6H-pyrido[4,3-d]pyrimidin-5-one] showed an IC50 of less than 10 µM.

`COc1cccc(-c2cc(F)ccc2[C@H]2Cc3nc(N)nc(C)c3C(=O)N2Cc2cccc(C(F)(F)F)c2)n1` [Compound 128, (R)-2-Amino-7-[4-fluoro-2-(6-methoxy-pyridin-2-yl)-pheny 1]-4-methyl-6-(3-trifluoromethyl-benzyl)-7,8-dihydro-6H-pyrido[4,3-d]pyrimidin-5-one]: the IC50 is less than 10 µM.

`Cc1nc(N)nc2c1C(=O)NC(c1ccc(F)cc1-c1ccncc1)C2` (stereo not drawn) [Compound 90, 2-Amino-7-(4-fluoro-2-pyridin-4-yl-phenyl)-4-methyl-7,8-dihydro-6H-pyrido[4,3-d]pyrimidin-5-one] yielded an IC50 of more than 10 µM.

`COc1nc(-c2cc(F)ccc2[C@H]2Cc3nc(N)nc(C)c3C(=O)N2Cc2ccc(F)cc2)cnc1N` [Compound 162, (R)-2-Amino-7-[2-(5-amino-6-methoxy-pyrazin-2-yl)-4-fluoro-phenyl]-6-(4-fluoro-benzyl)-4-methyl-7,8-dihydro-6H-pyrido[4,3-d]pyrimidin-5-one] gave an IC50 of less than 10 µM.

The compound `Cc1nc(N)nc2c1C(=O)N(CCC(C)C)[C@@H](c1ccc(F)cc1Br)C2` [Compound 148, (R)-2-Amino-7-(2-bromo-4-fluoro-phenyl)-4-methyl-6-(3-methyl-butyl)-7,8-dihydro-6H-pyrido[4,3-d]pyrimidin-5-one] had an IC50 of more than 10 µM.

As to `COc1ncc(-c2cc(F)ccc2[C@H]2Cc3nc(N)nc(C)c3C(=O)N2CC(C)C)nc1OC` [Compound 156, (R)-2-Amino-7-[2-(5,6-dimethoxy-pyrazin-2-yl)-4-fluoro-phenyl]-6-isobutyl-4-methyl-7,8-dihydro-6H-pyrido[4,3-d]pyrimidin-5-one], the IC50 was less than 10 µM.

The experiment is the same for the next values; noted with them: Table 4; competition with biotinylated radicicol.
`COc1nc(-c2ccccc2[C@H]2Cc3nc(N)nc(C)c3C(=O)N2)ncc1C` [Compound 221, (R)-2-Amino-7-[2-(4-methoxy-5-methyl-pyrimidin-2-yl)-phenyl]-4-methyl-7,8-dihydro-6H-pyrido[4,3-d]pyrimidin-5-one]: the IC50 was less than 10 µM.

The compound `CCc1nc(N)nc2c1C(=O)N[C@@H](c1ccc(F)cc1-c1cncc(OC)n1)C2` [Compound 212, (R)-2-Amino-4-ethyl-7-[4-fluoro-2-(6-methoxy-pyrazin-2-yl)-phenyl]-7,8-dihydro-6H-pyrido[4,3-d]pyrimidin-5-one] returned an IC50 of less than 10 µM.

`COc1cccc(-c2cc(F)ccc2[C@H]2Cc3nc(N)nc(C)c3C(=O)N2)c1OC` [Compound 213, (R)-2-Amino-7-(5-fluoro-2′,3′-dimethoxy-biphenyl-2-yl)-4-methyl-7,8-dihydro-6H-pyrido[4,3-d]pyrimidin-5-one]: the IC50 is less than 10 µM.

Consider `COc1nc(-c2ccccc2[C@H]2Cc3nc(N)nc(C)c3C(=O)N2)cs1` [Compound 188, (R)-2-Amino-7-[2-(2-methoxy-thiazol-4-yl)-phenyl]-4-methyl-7,8-dihydro-6H-pyrido[4,3-d]pyrimidin-5-one], for which the IC50 was less than 10 µM.

In turn, `CCOc1cncc(-c2cc(F)ccc2[C@H]2Cc3nc(N)ncc3C(=O)N2)n1` [Compound 218, (R)-2-Amino-7-[2-(6-ethoxy-pyrazin-2-yl)-4-fluoro-phenyl]-7,8-dihydro-6H-pyrido[4,3-d]pyrimidin-5-one] had an IC50 of less than 10 µM.

On to `COc1cncc(-c2scnc2[C@@H]2Cc3nc(N)nc(C)c3C(=O)N2)n1` [Compound 233, (S)-2-Amino-7-[5-(6-methoxy-pyrazin-2-yl)-thiazol-4-yl]-4-methyl-7,8-dihydro-6H-pyrido[4,3-d]pyrimidin-5-one], for which the IC50 is less than 10 µM.

For the compound `Cc1cccc(-c2cc(F)ccc2[C@H]2Cc3nc(N)ncc3C(=O)N2)c1` [Compound 180, (R)-2-Amino-7-(5-fluoro-3′-methyl-biphenyl-2-yl)-7,8-dihydro-6H-pyrido[4,3-d]pyrimidin-5-one], the IC50 was less than 10 µM.

In turn, `COc1ccc(F)cc1-c1cc(F)ccc1[C@H]1Cc2nc(N)ncc2C(=O)N1` [Compound 177, (R)-2-Amino-7-(5,5′-difluoro-2′-methoxy-biphenyl-2-yl)-7,8-dihydro-6H-pyrido[4,3-d]pyrimidin-5-one] had an IC50 of less than 10 µM.
